Measurements published in patent US4518413A, “Poly-phosphorodiamide urease inhibitors and urease inhibited urea based fertilizer compositions” (Allied Corporation, priority 1983, dated 1985).

Tested on: soil urease
Assay: Efficacy test: inhibition of urease-catalysed urea hydrolysis in soil (urea remaining after incubation)
Type: biochemical
Settings: New York soil (Cazenovia silt loam, pH 7.2); 800 micrograms test compound and 42.8 mg urea per 20 g air-dry soil; incubated at 25° C. for three days; run in triplicate
Experimental: Efficacy tests were conducted to evaluate the efficacy of certain representative poly-phosphorodiamide compounds as urease inhibitors. The inhibition tests were run in a New York soil (Cazenovia silt loam, pH 7.2). Evaluations (run in triplicate) consisted of applying 800 micrograms of the test compound in 5 mL of water and 42.8 mg of urea in 1 mL of water to 20 g of air-dry soil in a glass bottle. The bottle was capped with perforated aluminum foil and incubated at 25° C. for three days prior to extraction with 100 mL of a 2M KCl solution containing 0.5 mg of phenylmercuric acetate. The extracts were then analyzed for remaining urea using an autoanalyzer. Percent inhibition was calculated as [formula] where A is urea recovered from unincubated sample (urea added to soil and immediately extracted); B is urea recovered from inhibited sample; and C is urea recovered from the control (uninhibited sample).

Structure (SMILES)	% Inhibition
NP(N)(=O)NCCCCCCNP(N)(N)=O [N,N'-Bis-(diaminophosphinyl)-1,6-diaminohexane]	86%
CC1(NP(N)(N)=O)CCC(C(C)(C)NP(N)(N)=O)CC1 (stereo not drawn) [N,N'-Bis-(diaminophosphinyl)-1,8-diamino-p-menthane]	84%
NP(N)(=O)N1CCN(P(N)(N)=O)CC1 [N,N'Bis-diaminophosphinyl-piperazine, N,N'-Bis-(diaminophosphinyl)piperazine]	76%
NP(N)(=O)Oc1cccc(OP(N)(N)=O)c1 [Phosphorodiamidic Acid 1,3-Phenylene Ester]	81%
NP(N)(=O)Oc1ccc(OP(N)(N)=O)cc1 [Phosphorodiamidic Acid 1,4-Phenylene Ester]	90%
CC(C)(c1ccc(OP(N)(N)=O)cc1)c1ccc(OP(N)(N)=O)cc1 [Phosphorodiamidic Acid (1-Methylethylidene)-di-4,1-PhenyleneEster]	70%
